Data: ChEMBL document CHEMBL5724914, “Linking interpersonal differences in gut microbiota composition and drug biotransformation activity” (2024)

Tests used:
[1] = (§1) The drug is tested on Z-025 corresponding to rabbit gut metagenome with ENA study accession number: PRJEB37062 and ENA sample accession number: ERS12561824 for biotransformation under anaerobic condition. The drug concentrations were measured over 9 timepoints collected between 0 and 24 hours of incubation by liquid-chromatography-coupled mass spectrometry (LC–MS); settings: 2 µM
[2] = as §1, with “Z-022” for “Z-025”, “mouse” for “rabbit”, “ERS12561821” for “ERS12561824”; settings: 2 µM
[3] = as §1, with “Z-016” for “Z-025”, “mouse” for “rabbit”, “ERS12561815” for “ERS12561824”; settings: 2 µM
[4] = as §1, with “Z-008” for “Z-025”, “to” for “to rabbit gut”, “ERS12561808” for “ERS12561824”; settings: 2 µM
[5] = as §1, with “Z-004” for “Z-025”, “to” for “to rabbit gut”, “ERS12561804” for “ERS12561824”; settings: 2 µM
[6] = as §1, with “Z-003” for “Z-025”, “pig” for “rabbit”, “ERS12561803” for “ERS12561824”; settings: 2 µM
[7] = as §1, with “WLS-350” for “Z-025”, “human” for “rabbit”, “ERS12561789” for “ERS12561824”; settings: 2 µM
[8] = as §1, with “WLS-240” for “Z-025”, “human” for “rabbit”, “ERS12561773” for “ERS12561824”; settings: 2 µM
[9] = as §1, with “WLS-077” for “Z-025”, “human” for “rabbit”, “ERS12561750” for “ERS12561824”; settings: 2 µM
[10] = as §1, with “WLS-038” for “Z-025”, “human” for “rabbit”, “ERS12561745” for “ERS12561824”; settings: 2 µM
[11] = human gut metagenome, 24 h, 2 µM
[12] = human gut metagenome, 24 h, 2 µM; remark: listed apart in the source
[13] = human gut metagenome, 24 h, 2 µM; remark: listed apart in the source
[14] = human gut metagenome, 24 h, 2 µM; remark: listed apart in the source
[15] = human gut metagenome, 24 h, 2 µM; remark: listed apart in the source
[16] = human gut metagenome, 24 h, 2 µM; remark: listed apart in the source
[17] = human gut metagenome, 24 h, 2 µM; remark: listed apart in the source
[18] = human gut metagenome, 24 h, 2 µM; remark: listed apart in the source
[19] = human gut metagenome, 24 h, 2 µM; remark: listed apart in the source
[20] = human gut metagenome, 24 h, 2 µM; remark: listed apart in the source
Note: call rule not given here.

| Compound | Bacterial Biotransformation [1] | Bacterial Biotransformation [2] | Bacterial Biotransformation [3] | Bacterial Biotransformation [4] | Bacterial Biotransformation [5] | Bacterial Biotransformation [6] | Bacterial Biotransformation [7] | Bacterial Biotransformation [8] | Bacterial Biotransformation [9] | Bacterial Biotransformation [10] | Bacterial Biotransformation [11] | Bacterial Biotransformation [12] | Bacterial Biotransformation [13] | Bacterial Biotransformation [14] | Bacterial Biotransformation [15] | Bacterial Biotransformation [16] | Bacterial Biotransformation [17] | Bacterial Biotransformation [18] | Bacterial Biotransformation [19] | Bacterial Biotransformation [20] |
| --- | --- | --- | --- | --- | --- | --- | --- | --- | --- | --- | --- | --- | --- | --- | --- | --- | --- | --- | --- | --- |
| CCN(CC)C(=O)C1(c2ccccc2)CC1CN (stereo unspecified) | Compound NOT metabolized | Compound NOT metabolized | Compound NOT metabolized | Compound NOT metabolized | Compound NOT metabolized | Compound NOT metabolized | Compound NOT metabolized | Compound NOT metabolized | Compound NOT metabolized | Compound NOT metabolized | Compound NOT metabolized | Compound NOT metabolized | Compound NOT metabolized | Compound NOT metabolized | Compound NOT metabolized | Compound NOT metabolized | Compound NOT metabolized | Compound NOT metabolized | Compound NOT metabolized | Compound NOT metabolized |
| COc1ccc(/C=C/C(=O)Nc2ccccc2C(=O)O)cc1OC | Compound metabolized | Compound metabolized | Compound metabolized | Compound NOT metabolized | Compound NOT metabolized | Compound metabolized | Compound NOT metabolized |  | Compound metabolized | Compound metabolized | Compound NOT metabolized | Compound NOT metabolized | Compound NOT metabolized | Compound NOT metabolized | Compound NOT metabolized | Compound metabolized | Compound NOT metabolized | Compound NOT metabolized | Compound NOT metabolized | Compound NOT metabolized |
| Nc1nc(NC2CC2)c2ncn([C@H]3C=C[C@@H](CO)C3)c2n1.Nc1nc(NC2CC2)c2ncn([C@H]3C=C[C@@H](CO)C3)c2n1.O=S(=O)(O)O [ABACAVIR SULFATE] | Compound NOT metabolized | Compound metabolized | Compound NOT metabolized | Compound NOT metabolized | Compound metabolized | Compound NOT metabolized | Compound metabolized | Compound metabolized | Compound metabolized | Compound NOT metabolized | Compound metabolized | Compound NOT metabolized | Compound metabolized | Compound metabolized | Compound metabolized | Compound metabolized | Compound metabolized | Compound metabolized | Compound metabolized | Compound metabolized |
| CCN(CC)CCNC(=O)c1ccc(NC(C)=O)cc1 [ACECAINIDE] | Compound NOT metabolized | Compound NOT metabolized | Compound NOT metabolized | Compound NOT metabolized | Compound NOT metabolized | Compound NOT metabolized | Compound NOT metabolized | Compound metabolized | Compound NOT metabolized | Compound NOT metabolized | Compound NOT metabolized | Compound NOT metabolized | Compound NOT metabolized | Compound NOT metabolized | Compound metabolized | Compound metabolized | Compound NOT metabolized | Compound NOT metabolized | Compound NOT metabolized | Compound NOT metabolized |
| O=C1CN2Cc3c(ccc(Cl)c3Cl)N=C2N1 [ANAGRELIDE] | Compound NOT metabolized | Compound metabolized | Compound NOT metabolized | Compound NOT metabolized | Compound NOT metabolized | Compound NOT metabolized | Compound NOT metabolized | Compound metabolized | Compound NOT metabolized | Compound metabolized | Compound NOT metabolized | Compound NOT metabolized | Compound NOT metabolized | Compound NOT metabolized | Compound NOT metabolized | Compound metabolized | Compound NOT metabolized | Compound metabolized | Compound metabolized | Compound NOT metabolized |
| CN(C)C(=O)Oc1cc(OC(=O)N(C)C)cc(C(O)CNC(C)(C)C)c1 (stereo unspecified) [BAMBUTEROL] | Compound metabolized | Compound metabolized | Compound NOT metabolized | Compound NOT metabolized | Compound metabolized | Compound NOT metabolized | Compound metabolized | Compound metabolized | Compound NOT metabolized | Compound NOT metabolized | Compound metabolized | Compound NOT metabolized | Compound metabolized | Compound NOT metabolized | Compound NOT metabolized | Compound metabolized | Compound metabolized | Compound metabolized | Compound NOT metabolized | Compound NOT metabolized |
| CC(C)C[C@H]1C(=O)N2CCC[C@H]2[C@]2(O)O[C@](NC(=O)[C@@H]3C=C4c5cccc6[nH]c(Br)c(c56)C[C@H]4N(C)C3)(C(C)C)C(=O)N12.CS(=O)(=O)O [BROMOCRIPTINE MESYLATE] | Compound metabolized | Compound metabolized | Compound metabolized | Compound metabolized | Compound metabolized | Compound metabolized | Compound metabolized | Compound NOT metabolized | Compound metabolized | Compound metabolized | Compound metabolized | Compound metabolized | Compound metabolized | Compound metabolized |  |  | Compound NOT metabolized | Compound metabolized | Compound NOT metabolized | Compound NOT metabolized |
| COc1cc(C(=O)NCc2ccc(OCCN(C)C)cc2)cc(OC)c1OC [TRIMETHOBENZAMIDE] | Compound NOT metabolized | Compound NOT metabolized | Compound NOT metabolized | Compound NOT metabolized | Compound NOT metabolized | Compound NOT metabolized | Compound NOT metabolized | Compound NOT metabolized | Compound NOT metabolized | Compound NOT metabolized | Compound NOT metabolized | Compound NOT metabolized | Compound NOT metabolized | Compound NOT metabolized | Compound NOT metabolized |  | Compound NOT metabolized | Compound NOT metabolized | Compound NOT metabolized | Compound NOT metabolized |
